For one assay, the system named is osteoclast precursors. Description: cells. Type of assay: cell-based. Conditions: read-out: Osteoclast assay. The method, then:
Osteoclast Tartrate-Resistant Acid Phosphatase Assay
Diluted compound was transferred to a 384-well black clear bottom plate. Two-thousand five hundred osteoclast precursors (Lonza, Walkersville, Md.) were added per well in growth media containing Receptor Activator of Nuclear Factor Kappa-beta ligand (RANKL) and M-CSF (R&D Systems, Minneapolis, Minn.). […] Tartrate-resistant acid phosphatase activity in the supernatant samples was determined using an acid phosphatase assay kit (Sigma, St. Louis, Mo.). Absorbance was measured at 550 nm using a plate reader. Data was analyzed using Prism software (Graphpad, San Diego, Calif.) to calculate IC50 values.

The next assay concerns M-NFS-60 cells. The experiment in a line: cells. The note with it: 67 h, read-out: M-NFS-60 cell proliferation.
Assay [1] concerns the target T1, unphosphorylated c-FMS kinase (uFMS, Seq. ID no. 1) (Homo sapiens, UniProt P07333).
T1 sequence (P07333 538-972): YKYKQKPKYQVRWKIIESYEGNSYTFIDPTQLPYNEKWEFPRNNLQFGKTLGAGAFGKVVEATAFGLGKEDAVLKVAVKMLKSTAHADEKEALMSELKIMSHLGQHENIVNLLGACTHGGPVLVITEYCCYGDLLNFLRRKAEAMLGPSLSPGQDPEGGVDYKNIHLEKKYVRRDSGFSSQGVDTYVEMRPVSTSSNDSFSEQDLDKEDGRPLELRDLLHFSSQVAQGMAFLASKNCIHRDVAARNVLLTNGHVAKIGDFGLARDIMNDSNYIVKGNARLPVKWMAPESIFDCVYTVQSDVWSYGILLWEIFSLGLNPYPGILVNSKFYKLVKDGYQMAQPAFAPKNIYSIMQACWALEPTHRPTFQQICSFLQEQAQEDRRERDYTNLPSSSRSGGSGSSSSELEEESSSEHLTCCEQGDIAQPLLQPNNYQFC
Description: biochemical. Conditions: uFMS, enzymatic assay, ATP 500 μM.

Assay [2] deals with unphosphorylated PDGFRβ kinase (uPDGFRβ, Seq. ID No. 3) (Homo sapiens, UniProt P09619). Description: biochemical. Conditions: uPDGFRb, enzymatic assay, ATP 500 μM.
The target in assay [3] is unphosphorylated c-KIT kinase (uKIT, Seq. ID no. 2) (Homo sapiens, UniProt P10721). Description: biochemical. The note with it: uKIT, enzymatic assay, ATP 2000 μM.
Description: uKit kinase (Seq. ID No. 2) Assay
In this assay, the oxidation of NADH (thus the decrease at A340 nm) was continuously monitored spectrophometrically. […] The inhibition reaction was started by mixing serial diluted test compound with the above reaction mixture. The absorption at 340 nm was monitored continuously for 4 hours at 30° C. on Synergy 2 plate reader (BioTech).

Bounds are passed on as bounds.

Sequence of unphosphorylated PDGFRβ kinase (uPDGFRβ, Seq. ID No. 3) (P09619 557-1106): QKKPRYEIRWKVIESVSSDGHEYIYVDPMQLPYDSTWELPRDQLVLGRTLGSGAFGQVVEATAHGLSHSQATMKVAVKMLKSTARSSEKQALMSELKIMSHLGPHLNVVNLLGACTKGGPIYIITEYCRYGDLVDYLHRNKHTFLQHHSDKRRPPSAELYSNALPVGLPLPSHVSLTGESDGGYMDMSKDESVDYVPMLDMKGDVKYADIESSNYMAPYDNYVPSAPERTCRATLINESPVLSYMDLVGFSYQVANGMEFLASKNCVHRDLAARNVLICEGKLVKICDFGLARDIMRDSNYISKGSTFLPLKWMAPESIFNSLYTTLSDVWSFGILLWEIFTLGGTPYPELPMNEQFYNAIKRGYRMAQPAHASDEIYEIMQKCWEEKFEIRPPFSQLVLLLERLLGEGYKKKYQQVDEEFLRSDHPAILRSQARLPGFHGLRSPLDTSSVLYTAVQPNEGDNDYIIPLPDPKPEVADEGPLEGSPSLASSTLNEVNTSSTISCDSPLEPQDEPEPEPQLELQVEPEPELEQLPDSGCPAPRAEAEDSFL
Sequence of unphosphorylated c-KIT kinase (uKIT, Seq. ID no. 2) (P10721 with tags, fused parts or gaps): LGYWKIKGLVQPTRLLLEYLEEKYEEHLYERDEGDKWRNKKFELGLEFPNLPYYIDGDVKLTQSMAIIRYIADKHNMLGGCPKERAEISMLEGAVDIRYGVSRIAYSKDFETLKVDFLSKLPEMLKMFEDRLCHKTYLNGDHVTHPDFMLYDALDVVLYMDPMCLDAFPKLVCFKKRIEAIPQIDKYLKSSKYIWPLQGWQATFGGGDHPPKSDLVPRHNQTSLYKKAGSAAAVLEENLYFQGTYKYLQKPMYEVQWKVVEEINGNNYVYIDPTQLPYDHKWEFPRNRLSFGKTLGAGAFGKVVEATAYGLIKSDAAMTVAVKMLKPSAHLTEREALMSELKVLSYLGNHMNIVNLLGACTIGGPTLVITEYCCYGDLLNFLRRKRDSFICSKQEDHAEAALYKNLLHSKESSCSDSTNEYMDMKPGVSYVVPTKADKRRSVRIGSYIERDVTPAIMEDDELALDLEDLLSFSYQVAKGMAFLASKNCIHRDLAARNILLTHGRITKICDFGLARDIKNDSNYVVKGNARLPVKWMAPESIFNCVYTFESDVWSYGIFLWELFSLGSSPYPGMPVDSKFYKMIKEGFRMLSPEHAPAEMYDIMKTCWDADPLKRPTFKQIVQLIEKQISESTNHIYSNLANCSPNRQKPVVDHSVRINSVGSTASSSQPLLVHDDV
Description for M-NFS-60 cells: M-NFS-6 Cell Proliferation Assay
A serial dilution of test compound was dispensed into a 384-well black clear bottom plate (Corning, Corning, N.Y.). Two thousand five hundred cells were added per well in 50 μL complete growth medium. […] IC50 values were calculated from a series of percent inhibition values determined at a range of inhibitor concentrations using software routines as implemented in the GraphPad Prism software package.

Turning to `Cn1cc(-c2cc(Oc3ccc(NC(=O)NC(=O)C4CC(C)(C)C4)nc3)ncn2)cn1` [Example 5, 3,3-dimethyl-N-((5-((6-(1-methyl-1H-pyrazol-4-yl)pyrimidin-4-yl)oxy)pyridin-2-yl)carbamoyl)cyclobutanecarboxamide], the IC50 was under 10 nM in the assay with osteoclast precursors, under 10 nM with M-NFS-60 cells, under 10 nM in assay [1] and 10 to 100 nM in assay [2].

On to `Cc1cc(-c2cc(Oc3ccc(NC(=O)NC(=O)C4CC(C)(C)C4)nc3C)ccn2)on1` [Example 14, 3,3-dimethyl-N-((6-methyl-5-((2-(3-methylisoxazol-5-yl)pyridin-4-yl)oxy)pyridin-2-yl)carbamoyl)cyclobutanecarboxamide], for which the IC50 was in the range of 10 to 100 nM in the assay with osteoclast precursors and 100 to 1000 nM in assay [2].

On to `CC(C)C(=O)NC(=O)Nc1ccc(Oc2ccnc(-c3cnn(C)c3)c2)cn1` [Example 24, N-((5-((2-(1-methyl-1H-pyrazol-4-yl)pyridin-4-yl)oxy)pyridin-2-yl)carbamoyl)isobutyramide], for which, in the assay with osteoclast precursors, the IC50 is under 10 nM.

On to `COCCCC(=O)NC(=O)Nc1ccc(Oc2ccnc(-c3cnn(C)c3)c2)c(C)n1` [Example 25, 4-methoxy-N-((6-methyl-5-((2-(1-methyl-1H-pyrazol-4-yl)pyridin-4-yl)oxy)pyridin-2-yl)carbamoyl)butanamide], for which the IC50 in the assay with M-NFS-60 cells is 100 to 1000 nM; in assay [1], 10 to 100 nM; in assay [2], over 1000 nM.

As for `Cn1cc(-c2cc(Oc3ccc(NC(=O)NC(=O)C4(C#N)CC4)nc3)ccn2)cn1` [Example 27, 1-cyano-N-((5-((2-(1-methyl-1H-pyrazol-4-yl)pyridin-4-yl)oxy)pyridin-2-yl)carbamoyl)cyclopropanecarboxamide], the IC50 (with M-NFS-60 cells; in assay [1]; in assay [3]; in assay [2]) was over 1000 nM throughout.

Regarding `Cc1nc(NC(=O)NC(=O)C2(C#N)CC2)ccc1Oc1ccnc(-c2cnn(C)c2)c1` [Example 28, 1-cyano-N-((6-methyl-5-((2-(1-methyl-1H-pyrazol-4-yl)pyridin-4-yl)oxy)pyridin-2-yl)carbamoyl)cyclopropanecarboxamide], the IC50 is over 1000 nM in the assay on M-NFS-60 cells, 100 to 1000 nM in assay [1], over 1000 nM in assay [3] and over 1000 nM in assay [2].

Turning to `Cc1nc(NC(=O)NC(=O)CN2CCN(C)CC2)ccc1Oc1ccnc(-c2cnn(C)c2)c1` [Example 50, N-((6-methyl-5-((2-(1-methyl-1H-pyrazol-4-yl)pyridin-4-yl)oxy)pyridin-2-yl)carbamoyl)-2-(4-methylpiperazin-1-yl)acetamide], the IC50 was over 1000 nM in the assay with M-NFS-60 cells, 100 to 1000 nM in assay [1] and over 1000 nM in assay [3].

Turning to `CC(C)C(=O)NC(=O)Nc1ccc(Oc2ccnc(-c3cnn(C)c3)c2)c(C(F)(F)F)n1` [Example 82, N-((5-((2-(1-methyl-1H-pyrazol-4-yl)pyridin-4-yl)oxy)-6-(trifluoromethyl)pyridin-2-yl)carbamoyl)isobutyramide], in the assay on osteoclast precursors, the IC50 lay within 100 to 1000 nM.

On to `CCC(=O)NC(=O)Nc1ccc(Oc2ccnc(-c3cnc(C)s3)c2)cn1` [Example 98, N-((5-((2-(2-methylthiazol-5-yl)pyridin-4-yl)oxy)pyridin-2-yl)carbamoyl)propionamide], for which, in the assay on osteoclast precursors, the IC50 lay within 100 to 1000 nM.

Take `Cn1cc(-c2cc(Oc3ccc(NC(=O)NC(=O)C4CC5CCC4O5)nc3)ccn2)cn1` (centres unmarked) [Example 111, N-((5-((2-(1-methyl-1H-pyrazol-4-yl)pyridin-4-yl)oxy)pyridin-2-yl)carbamoyl)-7-oxabicyclo[2.2.1]heptane-2-carboxamide]: the IC50 with osteoclast precursors is under 10 nM; in assay [3], 100 to 1000 nM.

On to `Cc1ccc(-c2cc(Oc3ccc(NC(=O)NC(=O)C4(C)CC4)nc3)ccn2)cn1` [Example 114, 1-methyl-N-((5-((6′-methyl-[2,3′-bipyridin]-4-yl)oxy)pyridin-2-yl)carbamoyl)cyclopropanecarboxamide], for which, in the assay with osteoclast precursors, the IC50 was under 10 nM.

In the case of `Cc1ncc(-c2cc(Oc3ccc(NC(=O)NC(=O)C4CCOC4)nc3)ccn2)s1` (centres unmarked) [Example 115, N-((5-((2-(2-methylthiazol-5-yl)pyridin-4-yl)oxy)pyridin-2-yl)carbamoyl)tetrahydrofuran-3-carboxamide], the IC50 with osteoclast precursors was 10 to 100 nM; in the assay on M-NFS-60 cells, 100 to 1000 nM; in assay [1], 10 to 100 nM; in assay [3], over 1000 nM.

On to `Cc1ncc(-c2cc(Oc3ccc(NC(=O)NC(=O)C4(C)CC4)nc3)ccn2)s1` [Example 121, 1-methyl-N-((5-((2-(2-methylthiazol-5-yl)pyridin-4-yl)oxy)pyridin-2-yl)carbamoyl)cyclopropanecarboxamide], for which the IC50 in the assay on osteoclast precursors was under 10 nM.

Take `COC1(C(=O)NC(=O)Nc2ccc(Oc3ccnc(-c4cnc(C)s4)c3)c(C)n2)CC1` [Example 122, 1-methoxy-N-((6-methyl-5-((2-(2-methylthiazol-5-yl)pyridin-4-yl)oxy)pyridin-2-yl)carbamoyl)cyclopropanecarboxamide]: the IC50 in the assay on osteoclast precursors was 10 to 100 nM; in the assay on M-NFS-60 cells, 100 to 1000 nM; in assay [1] it was 10 to 100 nM; in assay [3], over 1000 nM.

Regarding `CCC(=O)NC(=O)Nc1ccc(Oc2ccnc(-n3cnc(C)c3)c2)cn1` [Example 128, N-((5-((2-(4-methyl-1H-imidazol-1-yl)pyridin-4-yl)oxy)pyridin-2-yl)carbamoyl)propionamide], the IC50 was 100 to 1000 nM in the assay with osteoclast precursors, over 1000 nM with M-NFS-60 cells, 100 to 1000 nM in assay [1] and over 1000 nM in assay [3].

For the molecule `Cc1ncc(-c2cc(Oc3ccc(NC(=O)NC(=O)C4CCOCC4)nc3C)ccn2)s1` [Example 129, N-((6-methyl-5-((2-(2-methylthiazol-5-yl)pyridin-4-yl)oxy)pyridin-2-yl)carbamoyl)tetrahydro-2H-pyran-4-carboxamide], the IC50 in the assay on osteoclast precursors was 10 to 100 nM; with M-NFS-60 cells, 100 to 1000 nM; in assay [1] it was 10 to 100 nM; in assay [3] it was over 1000 nM.

`COC(C)(C)C(=O)NC(=O)Nc1ccc(Oc2ccnc(-c3ccc(C4CCN(C)CC4)cc3)c2)c(C)n1` [Example 133, 2-methoxy-2-methyl-N-((6-methyl-5-((2-(4-(1-methylpiperidin-4-yl)phenyl)pyridin-4-yl)oxy)pyridin-2-yl)carbamoyl)propanamide]: the IC50 is 10 to 100 nM with osteoclast precursors, under 10 nM with M-NFS-60 cells, under 10 nM in assay [1] and 10 to 100 nM in assay [3].

With `Cc1cn(-c2cc(Oc3ccc(NC(=O)NC(=O)C4CCOCC4)nc3C)ccn2)cn1` [Example 142, N-((6-methyl-5-((2-(4-methyl-1H-imidazol-1-yl)pyridin-4-yl)oxy)pyridin-2-yl)carbamoyl)tetrahydro-2H-pyran-4-carboxamide], the IC50 with osteoclast precursors fell in the range of 10 to 100 nM; with M-NFS-60 cells, 100 to 1000 nM; in assay [1] it was 10 to 100 nM; in assay [3] it was 100 to 1000 nM.

As to `COC1(C(=O)NC(=O)Nc2ccc(Oc3ccnc(-n4cnc(C)c4)c3)cn2)CC1` [Example 143, 1-methoxy-N-((5-((2-(4-methyl-1H-imidazol-1-yl)pyridin-4-yl)oxy)pyridin-2-yl)carbamoyl)cyclopropanecarboxamide], the IC50 with osteoclast precursors fell in the range of 10 to 100 nM; with M-NFS-60 cells it was 100 to 1000 nM; in assay [1], 10 to 100 nM; in assay [3], 100 to 1000 nM.

Turning to `COC1(C(=O)NC(=O)Nc2ccc(Oc3ccnc(-c4ccc(C5CCN(C)CC5)cc4)c3)c(C)n2)CC1` [Example 144, 1-methoxy-N-((6-methyl-5-((2-(4-(1-methylpiperidin-4-yl)phenyl)pyridin-4-yl)oxy)pyridin-2-yl)carbamoyl)cyclopropanecarboxamide], the IC50 with osteoclast precursors is under 10 nM; in assay [3], 100 to 1000 nM.

Regarding `Cc1cn(-c2cc(Oc3ccc(NC(=O)NC(=O)C4(C)CCC4)nc3C)ccn2)cn1` [Example 147, 1-methyl-N-((6-methyl-5-((2-(4-methyl-1H-imidazol-1-yl)pyridin-4-yl)oxy)pyridin-2-yl)carbamoyl)cyclobutanecarboxamide], in the assay with osteoclast precursors, the IC50 lay in the range of 10 to 100 nM.

Regarding `COC1(C(=O)NC(=O)Nc2ccc(Oc3ccnc(-c4cnn(C)c4)c3)c(C)n2)CCCC1` [Example 150, 1-methoxy-N-((6-methyl-5-((2-(1-methyl-1H-pyrazol-4-yl)pyridin-4-yl)oxy)pyridin-2-yl)carbamoyl)cyclopentanecarboxamide], the results for the IC50 (in the assay with osteoclast precursors; in assay [3]; in assay [2]) were 10 to 100 nM, 10 to 100 nM and 100 to 1000 nM, respectively.

On to `COC1(C(=O)NC(=O)Nc2ccc(Oc3ccnc(-c4cnn(C)c4)c3)cn2)CCCC1` [Example 153, 1-methoxy-N-((5-((2-(1-methyl-1H-pyrazol-4-yl)pyridin-4-yl)oxy)pyridin-2-yl)carbamoyl)cyclopentanecarboxamide], for which the IC50 in the assay on osteoclast precursors was under 10 nM.

Values taken from patent US9382228B2 (priority 2013, dated 2016).
